# Results from patent publication US11926574B2, “Dimethoxyphenylalkylamine activators of serotonin receptors” (Entheogenix Biosciences, Inc., priority 2021, dated 2024).
# Structures can show the parent of a compound that is named as a salt.
# Target: 5HT2A (Homo sapiens, UniProt P28223)
# Assay: 5HT2A Activity (% Max Activation @ 0.3 uM)
# Assay type: cell-based
# Chain of 5HT2A (P28223 whole entry): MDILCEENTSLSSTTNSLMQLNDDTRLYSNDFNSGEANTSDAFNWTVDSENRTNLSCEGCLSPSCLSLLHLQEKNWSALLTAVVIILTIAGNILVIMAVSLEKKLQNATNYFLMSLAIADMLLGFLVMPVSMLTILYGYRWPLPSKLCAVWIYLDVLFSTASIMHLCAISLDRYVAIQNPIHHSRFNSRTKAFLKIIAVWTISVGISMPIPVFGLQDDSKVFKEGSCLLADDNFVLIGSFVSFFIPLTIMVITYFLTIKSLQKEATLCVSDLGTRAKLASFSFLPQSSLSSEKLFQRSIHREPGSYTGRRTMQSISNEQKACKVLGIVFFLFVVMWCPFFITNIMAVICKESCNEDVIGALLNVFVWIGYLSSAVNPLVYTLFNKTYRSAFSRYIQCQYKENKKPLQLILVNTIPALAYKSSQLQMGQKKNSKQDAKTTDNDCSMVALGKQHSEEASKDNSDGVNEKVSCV
row,SMILES,Emax at 0.3 µM [%]
1,"COc1ccc(OC)c2c1CCC(NCc1cc(C)cc(Cl)c1)C2 (stereo not shown) [Compound 1-1, N-(3-chloro-5-methylbenzyl)-5,8-dimethoxy-1,2,3,4-tetrahydronaphthalen-2-amine]",67
2,"COc1cc(I)c(OC)c2c1CC(NCc1cc(C)cc(Cl)c1)CC2 (stereo not shown) [Compound 1-2A, N-(3-chloro-5-methylbenzyl)-6-iodo-5,8-dimethoxy-1,2,3,4-tetrahydronaphthalen-2-amine]",73
3,"COc1ccc(OC)c2c1CCC(NCc1cc(C)cc(F)c1)C2 (stereo not shown) [Compound 1-3, N-(3-fluoro-5-methylbenzyl)-5,8-dimethoxy-1,2,3,4-tetrahydronaphthalen-2-amine]",76
4,"COc1ccc(OC)c2c1CCC(NCc1cc(C)cc(Br)c1)C2 (stereo not shown) [Compound 1-4, N-(3-bromo-5-methylbenzyl)-5,8-dimethoxy-1,2,3,4-tetrahydronaphthalen-2-amine]",42
5,"COc1ccc(OC)c2c1CCC(NCc1cc(C)cc(I)c1)C2 (stereo not shown) [Compound 1-5, N-(3-iodo-5-methylbenzyl)-5,8-dimethoxy-1,2,3,4-tetrahydronaphthalen-2-amine]",12
6,"COc1ccc(OC)c2c1CCC(NCc1cccc(Cl)c1C)C2 (stereo not shown) [Compound 1-9, N-(3-chloro-2-methylbenzyl)-5,8-dimethoxy-1,2,3,4-tetrahydronaphthalen-2-amine]",7
7,"COc1ccc(OC)c2c1CCC(NCc1cccc(C)c1Cl)C2 (stereo not shown) [Compound 1-10, N-(2-chloro-3-methylbenzyl)-5,8-dimethoxy-1,2,3,4-tetrahydronaphthalen-2-amine]",2
8,"COc1ccc(OC)c2c1CCC(NCc1ccc(Cl)cc1C)C2 (stereo not shown) [Compound 1-11, N-(4-chloro-2-methylbenzyl)-5,8-dimethoxy-1,2,3,4-tetrahydronaphthalen-2-amine]",1
9,"COc1ccc(OC)c2c1CCC(NCc1ccc(C)cc1Cl)C2 (stereo not shown) [Compound 1-12, N-(2-chloro-4-methylbenzyl)-5,8-dimethoxy-1,2,3,4-tetrahydronaphthalen-2-amine]",4
10,"COc1ccc(OC)c2c1CCC(NCc1cc(C)ccc1Cl)C2 (stereo not shown) [Compound 1-13, N-(2-chloro-5-methylbenzyl)-5,8-dimethoxy-1,2,3,4-tetrahydronaphthalen-2-Amine]",15
11,"COc1ccc(OC)c2c1CCC(NCc1cc(Cl)cc(Cl)c1)C2 (stereo not shown) [Compound 1-15, N-(3,5-dichlorobenzyl)-5,8-dimethoxy-1,2,3,4-tetrahydronaphthalen-2-amine]",11
12,"COc1ccc(OC)c2c1CCC(NCc1cccc(Cl)c1Cl)C2 (stereo not shown) [Compound 1-17, N-(2,3-dichlorobenzyl)-5,8-dimethoxy-1,2,3,4-tetrahydronaphthalen-2-amine]",1
13,"COc1ccc(OC)c2c1CCC(NCc1ccccc1)C2 (stereo not shown) [Compound 1-18, N-benzyl-5,8-dimethoxy-1,2,3,4-tetrahydronaphthalen-2-amine]",6
14,"COc1cc(C)c(OC)c2c1CC(NCc1cc(C)cc(Cl)c1)CC2 (stereo not shown) [Compound 1-19, N-(3-chloro-5-methylbenzyl)-5,8-dimethoxy-6-methyl-1,2,3,4-tetrahydro-naphthalen-2-amine hydrochloride]",73
15,"COc1ccc(OC)c2c1CC(NCc1cc(C)cc(Cl)c1)C2 [Compound 1-20, N-(3-chloro-5-methylbenzyl)-4,7-dimethoxy-2,3-dihydro-1H-inden-2-amine hydrochloride]",59
16,"COc1ccc(OC)c2c1CCC2NCc1cc(C)cc(Cl)c1 (stereo not shown) [Compound 1-21, N-(3-chloro-5-methylbenzyl)-4,7-dimethoxy-2,3-dihydro-1H-1-inden-1-amine]",9
17,"COc1ccc(OC)c(CCNCc2cc(C)cc(F)c2)c1 [Compound 2-2, 2-(2,5-dimethoxyphenyl)-N-(3-fluoro-5-methylbenzyl)ethan-1-amine]",76

row,SMILES,Emax at 0.3 µM [%]
1,"COc1ccc(OC)c(CCNCc2ccc(C)cc2Cl)c1 [Compound 2-3, N-(2-chloro-4-methylbenzyl)-2-(2,5-dimethoxyphenyl)ethan-1-amine]",8
2,"COc1ccc(OC)c(CCNCc2cc(C)ccc2Cl)c1 [Compound 2-4, N-(2-chloro-5-methylbenzyl)-2-(2,5-dimethoxyphenyl)ethan-1-amine]",67
3,"COc1ccc(OC)c(CCNCc2cc(Cl)cc(Cl)c2)c1 [Compound 2-6, N-(3,5-dichlorobenzyl)-2-(2,5-dimethoxyphenyl)ethan-1-amine]",68
4,"COc1ccc(OC)c(CCNCc2cccc(Cl)c2Cl)c1 [Compound 2-8, N-(2,3-dichlorobenzyl)-2-(2,5-dimethoxyphenyl)ethan-1-amine]",33
5,"COc1ccc(OC)c(CCNCc2cc(C)cc([N+](=O)[O-])c2)c1 [Compound 2-9, 2-(2,5-dimethoxyphenyl)-N-(3-methyl-5-nitrobenzyl)ethan-1-amine]",5
6,"COc1ccc(OC)c(CCNCc2cc(C)cc(Br)c2)c1 [Compound 2-10, N-(3-bromo-5-methylbenzyl)-2-(2,5-dimethoxyphenyl)ethan-1-amine]",79
7,"COc1ccc(OC)c(CCNCc2cc(C)cc(I)c2)c1 [Compound 2-11, 2-(2,5-dimethoxyphenyl)-N-(3-iodo-5-methylbenzyl)ethan-1-amine]",76
8,"COc1ccc(OC)c(CCNCc2cc(Cl)ccc2C)c1 [Compound 2-12, N-(5-chloro-2-methylbenzyl)-2-(2,5-dimethoxyphenyl)ethan-1-amine]",41
9,"COc1ccc(OC)c(CCNCc2ccc(Cl)c(C)c2)c1 [Compound 2-14, N-(4-chloro-3-methylbenzyl)-2-(2,5-dimethoxyphenyl)ethan-1-amine]",1
10,COc1ccc(OC)c(CCNCc2cccc(Cl)c2C)c1 [Compound 2-15],20
11,"COc1ccc(OC)c(CCNCc2cccc(C)c2Cl)c1 [Compound 2-16, N-(2-chloro-3-methylbenzyl)-2-(2,5-dimethoxyphenyl)ethan-1-amine]",64
12,"COc1cc(CCNCc2cc(C)cc(Cl)c2)c(OC)cc1C [Compound 2-18, N-(3-chloro-5-methylbenzyl)-2-(2,5-dimethoxy-4-methylphenyl)ethan-1-amine]",94
13,"CCc1cc(OC)c(CCNCc2cc(C)cc(Cl)c2)cc1OC [Compound 2-19, N-(3-chloro-5-methylbenzyl)-2-(4-ethyl-2,5-dimethoxyphenyl)ethan-1-amine]",84
14,"COc1cc(CCNCc2cc(C)cc(Cl)c2)c(OC)cc1F [Compound 2-20, N-(3-chloro-5-methylbenzyl)-2-(4-fluoro-2,5-dimethoxyphenyl)ethan-1-amine]",89
15,"COc1cc(CCNCc2cc(C)cc(Cl)c2)c(OC)cc1Cl [Compound 2-21, 2-(4-chloro-2,5-dimethoxyphenyl)-N-(3-chloro-5-methylbenzyl)ethan-1-amine]",92
16,"COc1cc(CCNCc2cc(C)cc(Cl)c2)c(OC)cc1Br [Compound 2-22, 2-(4-bromo-2,5-dimethoxyphenyl)-N-(3-chloro-5-methylbenzyl)ethan-1-amine]",85
17,"COc1cc(CCNCc2cc(C)cc(Cl)c2)c(OC)cc1C#N [Compound 2-23, 4-(2-((3-chloro-5-methylbenzyl)amino)ethyl)-2,5-dimethoxybenzonitrile]",96
